Measurements: ChEMBL document CHEMBL1154470, “Synthesis and antimicrobial activities of a new series of 4-S-[4(1)-amino-5(1)-oxo-6(1)-substituted benzyl-4(1),5(1)-dihydro-1(1),2(1),4(1)-triazin-3-yl]mercaptoacetyl-3-arylsydnones” (2008)
Values after ≈ are worked out from the molar mass of the structure shown.

Experiments:
Format in all cases: functional
Staphylococcus aureus = assay: Antibacterial activity against Staphylococcus aureus ATCC 25923 by serial dilution method
Pseudomonas aeruginosa = assay: Antibacterial activity against Pseudomonas aeruginosa ATCC 27853 by serial dilution method
Escherichia coli = assay: Antibacterial activity against Escherichia coli ATCC 25922 by serial dilution method
Bacillus subtilis = assay: Antibacterial activity against Bacillus subtilis by serial dilution method
Candida albicans = assay: Antifungal activity against Candida albicans NCIM No. 3100 by serial dilution method

Row | SMILES | MIC (Staphylococcus aureus) [µg/mL] | MIC (Pseudomonas aeruginosa) [µg/mL] | MIC (Escherichia coli) [µg/mL] | MIC (Bacillus subtilis) [µg/mL] | MIC (Candida albicans) [µg/mL]
1 | COc1ccc(-[n+]2noc([O-])c2C(=O)CSc2nnc(Cc3ccccc3)c(=O)n2N)cc1 | 0.25 (≈ 0.536 µM) | 0.25 (≈ 0.536 µM) | 0.25 (≈ 0.536 µM) | 0.25 (≈ 0.536 µM) | 0.25 (≈ 0.536 µM)
2 | NC(=O)N/N=C/c1ccc([N+](=O)[O-])o1 [NITROFURAZONE] | 0.5 (≈ 2.52 µM) | 0.5 (≈ 2.52 µM) | 0.25 (≈ 1.26 µM) | 0.5 (≈ 2.52 µM) | –
3 | Cc1ccc(-[n+]2noc([O-])c2C(=O)CSc2nnc(Cc3ccc(Br)cc3)c(=O)n2N)cc1 | 0.25 (≈ 0.472 µM) | 0.25 (≈ 0.472 µM) | 0.25 (≈ 0.472 µM) | 0.25 (≈ 0.472 µM) | 0.25 (≈ 0.472 µM)
4 | Cc1ccc(-[n+]2noc([O-])c2C(=O)CSc2nnc(Cc3ccc4c(c3)OCO4)c(=O)n2N)cc1 | 0.25 (≈ 0.506 µM) | 0.25 (≈ 0.506 µM) | 0.25 (≈ 0.506 µM) | 0.25 (≈ 0.506 µM) | 0.25 (≈ 0.506 µM)
5 | Nn1c(SCC(=O)c2c([O-])on[n+]2-c2ccccc2)nnc(Cc2ccc(Cl)cc2)c1=O | 0.25 (≈ 0.531 µM) | 0.25 (≈ 0.531 µM) | 0.25 (≈ 0.531 µM) | 0.25 (≈ 0.531 µM) | 0.25 (≈ 0.531 µM)
6 | Cc1ccc(-[n+]2noc([O-])c2C(=O)CSc2nnc(Cc3ccccc3)c(=O)n2N)cc1 | 0.25 (≈ 0.555 µM) | 0.25 (≈ 0.555 µM) | 0.25 (≈ 0.555 µM) | 0.25 (≈ 0.555 µM) | 0.25 (≈ 0.555 µM)
7 | Nn1c(SCC(=O)c2c([O-])on[n+]2-c2ccccc2)nnc(Cc2ccc(Br)cc2)c1=O | 0.25 (≈ 0.485 µM) | 0.25 (≈ 0.485 µM) | 0.25 (≈ 0.485 µM) | 0.25 (≈ 0.485 µM) | 0.25 (≈ 0.485 µM)
8 | COc1ccc(-[n+]2noc([O-])c2C(=O)CSc2nnc(Cc3ccc(Cl)cc3)c(=O)n2N)cc1 | 0.25 (≈ 0.499 µM) | 0.25 (≈ 0.499 µM) | 0.25 (≈ 0.499 µM) | 0.25 (≈ 0.499 µM) | 0.25 (≈ 0.499 µM)
9 | Nn1c(SCC(=O)c2c([O-])on[n+]2-c2ccccc2)nnc(Cc2ccc3c(c2)OCO3)c1=O | 0.25 (≈ 0.52 µM) | 0.25 (≈ 0.52 µM) | 0.25 (≈ 0.52 µM) | 0.25 (≈ 0.52 µM) | 0.25 (≈ 0.52 µM)
10 | Nn1c(SCC(=O)c2c([O-])on[n+]2-c2ccccc2)nnc(Cc2ccccc2)c1=O | 0.25 (≈ 0.573 µM) | 0.25 (≈ 0.573 µM) | 0.25 (≈ 0.573 µM) | 0.25 (≈ 0.573 µM) | 0.25 (≈ 0.573 µM)
11 | OC(Cn1cncn1)(Cn1cncn1)c1ccc(F)cc1F [FLUCONAZOLE] | – | – | – | – | 0.25 (≈ 0.816 µM)
12 | COc1ccc(-[n+]2noc([O-])c2C(=O)CSc2nnc(Cc3ccc(Br)cc3)c(=O)n2N)cc1 | 0.25 (≈ 0.458 µM) | 0.25 (≈ 0.458 µM) | 0.25 (≈ 0.458 µM) | 0.25 (≈ 0.458 µM) | 0.25 (≈ 0.458 µM)
13 | Nn1c(SCC(=O)c2c([O-])on[n+]2-c2ccccc2)nnc(Cc2ccc([N+](=O)[O-])cc2)c1=O | 0.5 (≈ 1.04 µM) | 0.25 (≈ 0.519 µM) | 0.25 (≈ 0.519 µM) | 0.25 (≈ 0.519 µM) | 0.25 (≈ 0.519 µM)
14 | Cc1ccc(-[n+]2noc([O-])c2C(=O)CSc2nnc(Cc3ccc(Cl)cc3)c(=O)n2N)cc1 | 0.25 (≈ 0.516 µM) | 0.25 (≈ 0.516 µM) | 0.25 (≈ 0.516 µM) | 0.25 (≈ 0.516 µM) | 0.25 (≈ 0.516 µM)
